Test results as given in ChEMBL document CHEMBL5291721, “A preclinical secondary pharmacology resource illuminates target-adverse drug reaction associations of marketed drugs” (Nat Commun, 2023).

What was measured:
[1] = molecular target: T1, Alpha-2A adrenergic receptor (Homo sapiens, UniProt P08913); assay type: functional, cell-based
T1 sequence (P08913 whole entry): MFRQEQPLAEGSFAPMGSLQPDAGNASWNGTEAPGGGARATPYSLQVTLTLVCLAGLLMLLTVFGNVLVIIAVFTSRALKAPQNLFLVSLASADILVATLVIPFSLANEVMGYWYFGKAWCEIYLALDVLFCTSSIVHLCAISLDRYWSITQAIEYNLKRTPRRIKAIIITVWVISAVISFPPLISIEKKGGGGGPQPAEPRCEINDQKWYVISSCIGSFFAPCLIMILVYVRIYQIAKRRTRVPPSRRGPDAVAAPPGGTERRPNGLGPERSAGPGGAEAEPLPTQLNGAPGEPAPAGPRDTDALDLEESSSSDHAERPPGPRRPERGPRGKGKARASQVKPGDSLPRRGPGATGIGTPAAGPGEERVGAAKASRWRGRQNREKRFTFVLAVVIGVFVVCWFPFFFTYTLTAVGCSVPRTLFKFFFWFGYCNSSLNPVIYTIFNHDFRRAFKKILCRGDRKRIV

[2] = molecular target: Neuronal acetylcholine receptor subunit alpha-4 (Homo sapiens, UniProt P43681)
Neuronal acetylcholine receptor subunit alpha-4, sequence (P43681 whole entry): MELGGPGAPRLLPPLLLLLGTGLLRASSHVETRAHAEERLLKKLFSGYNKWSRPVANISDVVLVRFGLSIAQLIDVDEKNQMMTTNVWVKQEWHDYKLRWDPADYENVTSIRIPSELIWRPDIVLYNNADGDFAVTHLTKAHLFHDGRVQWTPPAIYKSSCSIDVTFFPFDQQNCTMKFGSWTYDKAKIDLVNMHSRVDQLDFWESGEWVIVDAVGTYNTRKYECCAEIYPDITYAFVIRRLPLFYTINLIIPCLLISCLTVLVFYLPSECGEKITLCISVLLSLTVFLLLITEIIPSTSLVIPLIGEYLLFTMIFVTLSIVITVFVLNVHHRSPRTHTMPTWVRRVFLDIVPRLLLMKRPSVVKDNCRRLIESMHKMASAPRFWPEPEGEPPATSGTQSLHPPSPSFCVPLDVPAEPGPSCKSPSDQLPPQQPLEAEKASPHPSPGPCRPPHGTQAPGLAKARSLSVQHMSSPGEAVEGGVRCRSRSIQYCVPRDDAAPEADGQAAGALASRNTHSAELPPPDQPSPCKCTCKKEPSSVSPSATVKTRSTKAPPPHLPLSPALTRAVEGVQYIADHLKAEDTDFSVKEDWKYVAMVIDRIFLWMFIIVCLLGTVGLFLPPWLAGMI

[3] = molecular target: T2, 5-hydroxytryptamine receptor 3A (Homo sapiens, UniProt P46098); assay type: functional
T2 sequence (P46098 whole entry): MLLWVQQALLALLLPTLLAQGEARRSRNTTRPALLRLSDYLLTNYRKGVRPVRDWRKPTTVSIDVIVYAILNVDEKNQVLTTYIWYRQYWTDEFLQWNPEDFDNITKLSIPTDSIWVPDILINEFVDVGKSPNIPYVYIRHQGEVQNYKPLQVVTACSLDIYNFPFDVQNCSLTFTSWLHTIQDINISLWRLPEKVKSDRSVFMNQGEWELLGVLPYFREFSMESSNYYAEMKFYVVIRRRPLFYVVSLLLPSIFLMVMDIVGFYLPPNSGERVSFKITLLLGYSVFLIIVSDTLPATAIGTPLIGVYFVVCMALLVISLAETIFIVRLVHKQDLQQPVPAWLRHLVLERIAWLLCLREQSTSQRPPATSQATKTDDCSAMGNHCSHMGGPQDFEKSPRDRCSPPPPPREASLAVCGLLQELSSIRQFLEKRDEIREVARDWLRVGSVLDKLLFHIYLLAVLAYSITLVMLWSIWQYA

[4] = molecular target: Sodium-dependent dopamine transporter (Homo sapiens, UniProt Q01959)
Sodium-dependent dopamine transporter, sequence (Q01959 whole entry): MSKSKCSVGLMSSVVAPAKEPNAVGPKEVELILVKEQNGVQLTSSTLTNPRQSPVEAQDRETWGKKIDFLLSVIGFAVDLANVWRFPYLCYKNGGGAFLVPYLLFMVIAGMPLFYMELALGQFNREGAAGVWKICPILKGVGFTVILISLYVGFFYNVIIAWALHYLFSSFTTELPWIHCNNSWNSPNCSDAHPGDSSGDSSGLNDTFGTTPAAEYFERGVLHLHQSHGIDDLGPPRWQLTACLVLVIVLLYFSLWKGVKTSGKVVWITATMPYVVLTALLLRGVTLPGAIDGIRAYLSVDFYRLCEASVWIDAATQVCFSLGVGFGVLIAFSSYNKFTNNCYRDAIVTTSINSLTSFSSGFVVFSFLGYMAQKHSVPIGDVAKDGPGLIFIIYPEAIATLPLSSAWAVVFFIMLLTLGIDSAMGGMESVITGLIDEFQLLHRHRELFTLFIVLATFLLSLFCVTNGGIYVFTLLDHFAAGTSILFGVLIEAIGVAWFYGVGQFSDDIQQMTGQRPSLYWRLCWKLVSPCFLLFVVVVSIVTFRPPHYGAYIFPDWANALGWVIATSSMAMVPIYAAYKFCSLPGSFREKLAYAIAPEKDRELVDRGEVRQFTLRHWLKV

[5] = molecular target: 5-hydroxytryptamine receptor 2B (Homo sapiens, UniProt P41595); assay type: functional, cell-based
5-hydroxytryptamine receptor 2B, sequence (P41595 whole entry): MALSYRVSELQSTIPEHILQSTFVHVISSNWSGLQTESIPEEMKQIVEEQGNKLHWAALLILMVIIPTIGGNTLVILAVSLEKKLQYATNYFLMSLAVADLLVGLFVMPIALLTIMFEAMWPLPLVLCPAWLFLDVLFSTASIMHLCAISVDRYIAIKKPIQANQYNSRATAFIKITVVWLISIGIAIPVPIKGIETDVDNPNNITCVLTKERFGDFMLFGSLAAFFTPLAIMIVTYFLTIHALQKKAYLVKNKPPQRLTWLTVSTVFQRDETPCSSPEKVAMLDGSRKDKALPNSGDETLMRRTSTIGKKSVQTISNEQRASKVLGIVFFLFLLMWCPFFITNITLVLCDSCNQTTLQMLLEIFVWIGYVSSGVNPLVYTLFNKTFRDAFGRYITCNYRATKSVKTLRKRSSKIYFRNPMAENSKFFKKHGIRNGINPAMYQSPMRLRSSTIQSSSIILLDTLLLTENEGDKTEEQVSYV

[6] = molecular target: D(3) dopamine receptor (Homo sapiens, UniProt P35462)
D(3) dopamine receptor, sequence (P35462 whole entry): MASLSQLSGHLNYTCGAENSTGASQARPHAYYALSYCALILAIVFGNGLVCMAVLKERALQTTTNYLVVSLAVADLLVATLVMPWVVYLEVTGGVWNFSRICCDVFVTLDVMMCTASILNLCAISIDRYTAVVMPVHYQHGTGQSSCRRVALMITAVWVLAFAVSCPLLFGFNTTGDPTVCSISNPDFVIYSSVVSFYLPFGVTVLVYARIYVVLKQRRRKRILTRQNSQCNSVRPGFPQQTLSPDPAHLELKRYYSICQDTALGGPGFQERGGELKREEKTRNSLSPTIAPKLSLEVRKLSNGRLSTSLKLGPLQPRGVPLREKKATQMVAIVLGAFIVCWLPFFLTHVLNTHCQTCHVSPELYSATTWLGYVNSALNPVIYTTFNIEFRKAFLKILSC

[7] = molecular target: cGMP-inhibited 3',5'-cyclic phosphodiesterase 3A (Homo sapiens, UniProt Q14432); assay type: functional
cGMP-inhibited 3',5'-cyclic phosphodiesterase 3A, sequence (Q14432 whole entry): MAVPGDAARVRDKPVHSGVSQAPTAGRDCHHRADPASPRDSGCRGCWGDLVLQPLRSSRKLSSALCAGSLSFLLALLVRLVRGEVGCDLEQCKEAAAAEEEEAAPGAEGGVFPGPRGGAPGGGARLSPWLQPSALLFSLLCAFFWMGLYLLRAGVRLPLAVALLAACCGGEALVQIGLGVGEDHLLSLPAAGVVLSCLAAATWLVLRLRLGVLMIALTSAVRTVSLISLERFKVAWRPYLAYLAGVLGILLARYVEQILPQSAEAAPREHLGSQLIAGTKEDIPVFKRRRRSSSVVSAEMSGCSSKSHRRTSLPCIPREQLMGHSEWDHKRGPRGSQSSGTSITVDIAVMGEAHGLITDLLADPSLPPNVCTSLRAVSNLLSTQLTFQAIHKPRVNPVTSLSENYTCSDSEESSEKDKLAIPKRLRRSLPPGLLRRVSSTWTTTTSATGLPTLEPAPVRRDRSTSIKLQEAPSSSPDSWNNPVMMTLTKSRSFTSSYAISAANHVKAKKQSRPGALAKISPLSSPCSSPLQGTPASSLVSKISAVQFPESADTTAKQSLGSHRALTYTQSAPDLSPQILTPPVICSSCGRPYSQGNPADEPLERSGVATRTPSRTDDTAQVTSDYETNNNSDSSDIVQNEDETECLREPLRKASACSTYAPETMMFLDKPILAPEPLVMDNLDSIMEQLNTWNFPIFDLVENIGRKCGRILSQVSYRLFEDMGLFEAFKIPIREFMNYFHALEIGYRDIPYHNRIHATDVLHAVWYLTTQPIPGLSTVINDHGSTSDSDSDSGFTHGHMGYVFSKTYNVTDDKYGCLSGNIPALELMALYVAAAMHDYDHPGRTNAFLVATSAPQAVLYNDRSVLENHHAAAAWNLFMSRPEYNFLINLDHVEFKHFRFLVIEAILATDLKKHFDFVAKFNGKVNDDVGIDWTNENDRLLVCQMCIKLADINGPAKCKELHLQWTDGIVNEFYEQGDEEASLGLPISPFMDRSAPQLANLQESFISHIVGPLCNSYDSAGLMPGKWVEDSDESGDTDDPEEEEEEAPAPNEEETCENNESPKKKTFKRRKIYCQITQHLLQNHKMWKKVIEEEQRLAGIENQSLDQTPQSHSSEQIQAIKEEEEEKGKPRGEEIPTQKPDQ

[8] = molecular target: T3, Prostaglandin G/H synthase 1 (Rattus norvegicus, UniProt Q63921); assay type: functional
T3 sequence (Q63921 whole entry): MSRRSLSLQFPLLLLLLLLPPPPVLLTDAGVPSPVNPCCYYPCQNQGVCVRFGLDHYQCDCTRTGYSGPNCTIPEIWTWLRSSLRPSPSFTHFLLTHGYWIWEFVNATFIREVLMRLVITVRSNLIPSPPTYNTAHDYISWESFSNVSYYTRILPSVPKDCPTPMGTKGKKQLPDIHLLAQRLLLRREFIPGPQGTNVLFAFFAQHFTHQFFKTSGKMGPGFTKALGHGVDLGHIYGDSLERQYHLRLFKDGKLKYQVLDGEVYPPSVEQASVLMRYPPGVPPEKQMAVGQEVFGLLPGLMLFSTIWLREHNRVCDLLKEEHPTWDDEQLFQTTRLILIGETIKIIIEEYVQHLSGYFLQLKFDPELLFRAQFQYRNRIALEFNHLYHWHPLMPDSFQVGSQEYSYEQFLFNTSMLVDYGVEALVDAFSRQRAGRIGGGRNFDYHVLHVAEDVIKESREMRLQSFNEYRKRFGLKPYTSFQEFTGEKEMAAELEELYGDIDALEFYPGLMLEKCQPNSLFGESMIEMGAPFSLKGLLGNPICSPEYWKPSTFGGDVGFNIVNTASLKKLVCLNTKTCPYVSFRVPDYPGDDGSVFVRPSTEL

[9] = molecular target: T4, Adenosine receptor A3 (Homo sapiens, UniProt P0DMS8)
T4 sequence (P0DMS8 whole entry): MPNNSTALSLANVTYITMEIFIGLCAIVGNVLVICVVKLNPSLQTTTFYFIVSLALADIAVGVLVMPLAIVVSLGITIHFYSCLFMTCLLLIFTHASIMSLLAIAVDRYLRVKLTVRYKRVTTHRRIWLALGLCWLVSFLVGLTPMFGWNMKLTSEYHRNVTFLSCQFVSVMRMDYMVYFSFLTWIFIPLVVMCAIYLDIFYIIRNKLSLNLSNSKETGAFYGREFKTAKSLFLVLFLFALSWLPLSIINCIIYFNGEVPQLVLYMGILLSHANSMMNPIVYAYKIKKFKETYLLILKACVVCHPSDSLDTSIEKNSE

[10] = molecular target: Motilin receptor (Homo sapiens, UniProt O43193)
Motilin receptor, sequence (O43193 whole entry): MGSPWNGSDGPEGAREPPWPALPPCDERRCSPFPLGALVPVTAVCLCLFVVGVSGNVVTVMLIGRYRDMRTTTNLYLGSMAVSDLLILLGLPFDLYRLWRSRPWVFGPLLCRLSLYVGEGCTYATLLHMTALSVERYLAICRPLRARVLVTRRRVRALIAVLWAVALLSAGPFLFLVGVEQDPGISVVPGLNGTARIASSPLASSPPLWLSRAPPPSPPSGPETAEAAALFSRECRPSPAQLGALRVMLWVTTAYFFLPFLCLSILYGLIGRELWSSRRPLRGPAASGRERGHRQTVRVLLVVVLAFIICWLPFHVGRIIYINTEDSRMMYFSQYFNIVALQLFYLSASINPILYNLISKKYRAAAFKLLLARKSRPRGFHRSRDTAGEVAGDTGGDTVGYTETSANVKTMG

[11] = molecular target: T5, Alpha-2C adrenergic receptor (Homo sapiens, UniProt P18825); assay type: functional
T5 sequence (P18825 whole entry): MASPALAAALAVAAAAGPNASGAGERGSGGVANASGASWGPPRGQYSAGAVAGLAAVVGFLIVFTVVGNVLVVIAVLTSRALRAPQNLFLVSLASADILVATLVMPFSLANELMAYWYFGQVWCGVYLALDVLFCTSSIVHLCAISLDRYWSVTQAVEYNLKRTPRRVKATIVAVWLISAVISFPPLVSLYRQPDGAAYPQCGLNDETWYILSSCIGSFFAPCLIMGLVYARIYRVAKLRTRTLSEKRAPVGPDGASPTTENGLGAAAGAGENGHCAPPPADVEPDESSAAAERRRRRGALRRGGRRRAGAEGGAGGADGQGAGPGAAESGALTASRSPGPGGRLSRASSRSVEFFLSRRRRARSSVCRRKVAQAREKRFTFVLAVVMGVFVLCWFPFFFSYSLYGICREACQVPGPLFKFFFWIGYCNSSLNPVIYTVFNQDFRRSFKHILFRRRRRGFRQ
Also: assay procedure not described here.

Structure (SMILES) | AC50 [1] [µM] | AC50 [2] [µM] | AC50 [3] [µM] | AC50 [4] [µM] | AC50 [5] [µM] | AC50 [6] [µM] | AC50 [7] [µM] | AC50 [8] [µM] | AC50 [9] [µM] | AC50 [10] [µM] | AC50 [11] [µM]
C[C@@H]1O[C@@H]1P(=O)(O)O [FOSFOMYCIN] | > 10 | > 10 | > 30 | > 10 | > 10 | > 30 | > 30 | > 10 | > 10 | > 10 | > 10
OCc1cc([C@@H](O)CNCCCCCCOCCOCc2c(Cl)cccc2Cl)ccc1O [VILANTEROL] | > 30 | > 30 | > 30 | 6.7 | > 30 | > 30 | > 30 | > 30 | 29 | 14 | > 30
COC(=O)[C@@H]1CC2=CC(=O)CC[C@]2(C)[C@@]23O[C@@H]2C[C@@]2(C)[C@@H](CC[C@@]24CCC(=O)O4)[C@H]13 [EPLERENONE] | > 30 | > 30 | > 30 | > 30 | > 30 | > 30 | > 30 | > 30 | > 30 | > 30 | > 30
CC(C)NCC(O)COc1ccc(COCCOC(C)C)cc1 (stereo unspecified) [BISOPROLOL] | > 10 | > 10 | > 10 | > 10 | > 10 | > 30 | > 30 | > 30 | > 30 | > 10 | > 10
CC(C)C(=O)Nc1ccc([N+](=O)[O-])c(C(F)(F)F)c1 [FLUTAMIDE] | > 10 | > 30 | > 30 | > 10 | > 10 | > 30 | > 10 | > 10 | > 30 | > 30 | > 10
CS(=O)(=O)c1ccc([C@@H](O)[C@@H](CO)NC(=O)C(Cl)Cl)cc1 [THIAMPHENICOL] | > 30 | > 30 | > 30 | > 30 | > 30 | > 30 | > 30 | > 30 | > 30 | > 30 | > 30
CC(C)(C(=O)c1cccnc1)c1cccnc1 [METYRAPONE] | > 10 | > 10 | > 30 | > 10 | > 10 | > 30 | > 30 | > 10 | > 10 | > 10 | > 10
CC(C)NNC(=O)c1ccncc1 [IPRONIAZID] | > 30 | > 30 | > 30 | > 30 | > 30 | > 30 | > 30 | 0.45 | > 30 | > 30 | > 30
COC(=O)N[C@H](C(=O)N1CCC[C@H]1c1nc(-c2ccc(-c3ccc(-c4c[nH]c([C@@H]5CCCN5C(=O)[C@@H](NC(=O)OC)C(C)C)n4)cc3)cc2)c[nH]1)C(C)C | > 30 | > 30 | > 30 | > 30 | > 30 | > 30 | > 30 | > 30 | > 30 | > 30 | > 30
CC[C@H](C)C(=O)O[C@H]1C[C@H](O)C=C2C=C[C@H](C)[C@H](CC[C@@H](O)C[C@@H](O)CC(=O)O)[C@H]21 [PRAVASTATIN] | > 30 | > 30 | > 30 | > 30 | > 30 | > 30 | > 30 | > 30 | > 30 | > 30 | > 30
CN(CCOc1ccc(NS(C)(=O)=O)cc1)CCc1ccc(NS(C)(=O)=O)cc1 [DOFETILIDE] | > 30 | > 10 | > 30 | > 10 | > 30 | 0.78 | > 30 | > 30 | > 30 | > 10 | > 10
CO/N=C(\C(=O)N[C@@H]1C(=O)N2C(C(=O)[O-])=C(C[N+]3(C)CCCC3)CS[C@H]12)c1csc(N)n1 | > 300 | > 300 | > 300 | > 300 | > 300 | > 300 | > 300 | > 300 | > 300 | > 300 | > 300
CCOC(=O)[C@H](CCc1ccccc1)N[C@@H](C)C(=O)N1CCC[C@H]1C(=O)O | > 10 | > 10 | > 10 | > 10 | > 10 | > 10 | > 10 | > 30 | > 30 | > 10 | > 10
OCCN1CCN(CCCN2c3ccccc3C=Cc3ccccc32)CC1 [OPIPRAMOL] | > 30 | > 30 | > 30 | > 30 | > 30 | 1.32 | > 30 | > 30 | > 30 | > 30 | 6.7
O=C(CCCCCCC(=O)Nc1ccccc1)NO [VORINOSTAT] | > 30 | > 30 | > 30 | > 30 | > 30 | > 30 | > 30 | > 30 | > 30 | > 30 | > 30
CCCS(=O)(=O)Nc1ccc(F)c(C(=O)c2c[nH]c3ncc(-c4ccc(Cl)cc4)cc23)c1F [VEMURAFENIB] | > 30 | > 30 | > 30 | > 30 | > 30 | > 30 | > 30 | > 30 | 18 | > 30 | > 30
